The values that follow come from paper PMC10548421, “Anticancer Potential of Diruthenium Complexes with Bridging Hydrocarbyl Ligands from Bioactive Alkynols” (Inorganic Chemistry, 2023).

Like-named read-outs stand apart in the source and are kept apart here.

Assay [1] concerns A2780 human ovarian carcinoma cell line. As to the kind of experiment: MTT in vitro cytotoxicity, A2780. In kind it is cell-based. The protocol:
(§1) The cytotoxicity assessment was conducted on various human cancer cell lines, including A2780 ovarian carcinoma, A2780R cisplatin-resistant ovarian carcinoma, MCF-7 breast, HOS osteosarcoma, A549 epithelial lung, PANC-1 pancreatic, Caco-2 colorectal, PC-3 prostate adenocarcinoma, and HeLa cervical cell lines. Additionally, the assessment extended to a normal human fetal fibroblast cell line (MRC-5). Cells were obtained from ATCC collection and cultivated according to the producer’s instructions. Stock solutions of the compounds were prepared in DMF immediately before application, and diluted with H2O to achieve the final concentration of 0.1% v/v DMF.[99] The culture media were enriched with 10% fetal calf serum. Subsequently, the cells were exposed to the tested compounds, vehicle (0.1% v/v DMF) and Triton X-100 (1% v/v), during incubation. The conventional MTT assay was carried out following different incubation periods (Tables 5-6). The absorbance was measured at 570 nm by using a spectrophotometer (Infinite M200, Schoeller Instruments, Prague, Czech Republic). The obtained data are presented as the percentage of cell viability with 100% representing negative control treatment (0.1% v/v DMF) and 0% representing the positive control (Triton X-100). The half-maximal inhibitory concentrations (IC50) were determined from dose–response curves using GraphPad Prism 6 software (GraphPad Software, San Diego, USA).

The subject of assay [2] is A2780R cisplatin-resistant human ovarian carcinoma cell line. Nature of the assay: MTT in vitro cytotoxicity, A2780R. To be noted: incubation 24 h, mean ± SD. The class given is cell-based. The procedure: as §1
The test system of assay [3] is A549 human lung adenocarcinoma cell line. Nature of the assay: MTT in vitro cytotoxicity, A549. In kind it is cell-based. The conditions noted are these: incubation 24 h, mean ± SD. The procedure: as §1
Assay [4] concerns PC-3 human prostate carcinoma cell line. As to the kind of experiment: MTT in vitro cytotoxicity, PC-3. The conditions noted are these: incubation 24 h, mean ± SD. In kind it is cell-based. The protocol:
as §1

Assay [5] has as its target bovine serum albumin (BSA) (Bos taurus, UniProt P02769). As to the kind of experiment: Interaction with BSA (MALDI-TOF MS). In kind it is binding. The conditions noted are these: BSA 30 μM, complex 1 mM, 48 h at 37 °C. The protocol:
Bovine serum albumin (BSA, 30 μM in 50 mM NH4HCO3) was incubated with the selected complexes (3a or 3b, 1 mM) at 37 °C for 48 h. Each complex was preliminarily dissolved in 50 μL of methanol. Following the incubation, an aliquot of the protein was adsorbed by repeated aspiration and release (20 times, 10-μL volume) into a ZipTip-C4 pipet tip (Merck, Darmstadt, Germany) that had been pre-equilibrated in 0.1% trifluoroacetic acid (TFA), washed by the equilibrating solution, and eluted into 10 μL of 70% acetonitrile containing 0.1% TFA. The eluate was subsequently subjected to evaporation using a vacuum centrifuge, and the residue was dissolved in 3 μL of 0.1% TFA. A 1 μL aliquot of this solution was deposited on an MSP Big Anchor 96 target plate (Bruker Daltonik, Bremen, Germany), onto which 1 μL of the matrix solution (sinapinic acid, 12 mg/mL in 0.1% TFA and 50% acetonitrile) was immediately superimposed. The sample was then allowed to dry. Mass spectra were acquired using a Microflex LRF20 MALDI-TOF mass spectrometer operated in a linear positive ion mode and controlled using flexControl 3.4 software from Bruker Daltonik). Protein Standard II, from Bruker Daltonik, was used for external calibration. All spectra were subjected to processing by using flexAnalysis 3.4 software from Bruker Daltonik.

The test system of assay [6] is A2780 cells. Nature of the assay: Apoptosis, Annexin V/propidium iodide flow cytometry. In kind it is cell-based, human. The conditions noted are these: A2780, 4 μM, 24 h. The procedure:
(§2) The A2780 ovarian carcinoma cell line was received from Merck (reference 93112519–1VL) and cultured at 37 °C in an environment with 5% CO2. The cultivation was carried out in complete cell culture medium (RPMI-1640 medium, Merck), which was supplemented with 10% fetal bovine serum (FBS, Merck), 1% L-glutamine (Merck) and 1% penicillin–streptomycin–neomycin (PSN, Merck). For the flow cytometry experiments, three independent duplicates were analyzed using a BD FACSVerse flow cytometer (Becton Dickinson, USA). At least 5 × 10^3 events were recorded for each sample. The same procedure was replicated for the experiments described below. Solutions of the complexes were formulated using the stock solutions (Section 5.1).
Apoptosis assay was performed using an Annexin V-FITC/PI commercial kit (V13242, Thermo Fisher Scientific, USA), while caspase 3/7 activation assay was performed with a CellEvent Caspase-3/7 Green Flow Cytometry Assay Kit (C10427, Thermo Fisher Scientific, USA). A2780 cells were seeded in 24-well plates at a density of 5 × 10^4 cells per well; after 24 h, the cells were exposed to 4 μM solution of the selected complex for 24 h. […] The supernatant was collected, cells were washed with PBS (0.1 M, pH 7.4), and trypsin was added (0.25% trypsin-EDTA, GibcoTM). Finally, complete cell culture medium was added to stop the trypsinization, and a final volume of 500 μL was divided into two 250 μL aliquots, following the protocol provided by the manufacturer. Samples were centrifuged, treated with the respective buffers, and then incubated in the dark at room temperature for 10 min (Annexin V-FITC/PI) or at 37 °C for 30 min (CellEventTM Caspase-3/7 Green Detection Reagent).

In assay [7] the test system is A2780 cells. Nature of the assay: Autophagy analysis (CYTO-ID). In kind it is cell-based, human. To be noted: A2780, complexes 4 μM, cisplatin 15 μM, 24 h. The procedure:
as §2
The potential induction of autophagy by 3a and 3b in A2780 cells was studied with the kit CYTO-ID Autophagy Detection 2.0 (from Enzo Life Sciences, USA), following the protocol provided by the manufacturer. […] The supernatant was collected, cells were washed with warm PBS, detached using 0.25% trypsin-EDTA (Gibco) and resuspended in a cell culture medium. Diluted CYTO-ID Green stain solution (according to the protocol) was used to stain the samples. Following incubation for 30 min in a light-protected environment, the samples were washed with PBS (phosphate-buffered saline). Subsequently, a flow cytometry experiment was conducted. A mixture of chloroquine (10 μM) and rapamycin (0.5 μM) was used as positive control.

The test system of assay [8] is A2780 cells. As to the kind of experiment: ROS production assessment (ROS-ID). In kind it is cell-based, human. The conditions noted are these: A2780, 4 μM, 24 h. The protocol: as §2
ROS-ID Total ROS/Superoxide detection kit (from Enzo Life Sciences, US) was employed to quantify ROS and superoxide generation in A2780 cells following the treatment with the tested compounds. Thus, cells were seeded in a 96-well plate (10^4 cells/well) and incubated with 4 μM solution of complexes for 24 h. A 100 μM solution of pyocyanin, which is a known oxidative-stress inducer, was used as a positive control. […] Finally, a microplate reader Infinite M200Pro (Tecan, Switzerland) was used to measure sample fluorescence (green: Ex. 488 nm/Em. 520 nm, and red: Ex. 550 nm/Em. 610 nm) and three independent experiments were done in triplicates.

Setting [9] is: MTT, incubation 24 h, mean ± SD (Table 5), read-out: IC50 A2780.
The mark [10] stands for this setting: time-course experiment (Table 6), 24 h, mean ± SD, read-out: IC50 A2780, incubation time 24 h.
The mark [11] stands for this setting: time-course experiment (Table 6), 48 h, mean ± SD, read-out: IC50 A2780, incubation time 48 h.
The mark [12] stands for this setting: time-course experiment (Table 6), 72 h, mean ± SD, read-out: IC50 A2780, incubation time 72 h.

Sequence of bovine serum albumin (BSA) (P02769 25-607): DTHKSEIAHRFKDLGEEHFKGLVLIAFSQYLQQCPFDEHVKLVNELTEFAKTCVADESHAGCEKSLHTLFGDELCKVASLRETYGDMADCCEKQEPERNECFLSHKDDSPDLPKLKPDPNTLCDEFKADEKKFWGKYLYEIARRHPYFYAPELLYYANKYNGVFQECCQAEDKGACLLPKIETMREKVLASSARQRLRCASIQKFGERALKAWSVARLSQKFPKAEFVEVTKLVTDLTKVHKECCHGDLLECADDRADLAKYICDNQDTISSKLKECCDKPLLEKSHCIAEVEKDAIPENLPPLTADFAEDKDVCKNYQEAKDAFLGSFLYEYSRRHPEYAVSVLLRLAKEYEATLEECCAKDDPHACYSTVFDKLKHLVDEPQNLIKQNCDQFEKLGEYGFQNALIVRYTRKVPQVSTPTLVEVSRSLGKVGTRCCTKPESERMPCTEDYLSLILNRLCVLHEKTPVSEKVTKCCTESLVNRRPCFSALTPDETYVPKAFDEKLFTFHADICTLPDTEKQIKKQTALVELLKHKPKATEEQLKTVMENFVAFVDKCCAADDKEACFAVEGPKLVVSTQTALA

On to `F[B-](F)(F)F.O=[C]=[Ru+]1([CH]2C=CC=C2)[C](=O)[Ru]1(=[C]=O)([CH]=C=C1CCCC1)[CH]1C=CC=C1` (stereo not shown) [3a, [Ru2Cp2(CO)3{μ–η^1:η^2-CH=C=(cyclopentylidene)}]BF4], for which the IC50 was 4.2 ± 0.9 µM in assay [1] (setting [9]); 3.8 ± 0.7 µM in assay [1] (setting [10]); 3.2 ± 0.2 µM in assay [1] (setting [11]); 3.1 ± 0.2 µM in assay [1] (setting [12]); 6.4 ± 1.9 µM in assay [2]; 25.3 ± 1.9 µM in assay [3]. In addition, half-maximal inhibition in assay [4] (IC50) was put at 22.2 ± 2.4 µM. The “mass variation of adduct with respect to BSA” value in assay [5] amounted to 3434 Da. Further, in the assay with A2780 cells [6], the “proapoptotic effect, Annexin V/PI (in words)” value is on record as “much less effective than that of cisplatin”. In the assay on A2780 cells [7], the “autophagy level (in words)” value is listed as “not appreciable”. Moreover, the “intracellular ROS levels (in words)” value in the assay on A2780 cells [8] is “noteworthy elevation of intracellular ROS levels”.
In the case of `CC12CCC3c4ccc(O)cc4CCC3C1CCC2=C=[CH][Ru]1(=[C]=O)([CH]2C=CC=C2)[C](=O)[Ru+]1(=[C]=O)[CH]1C=CC=C1.F[B-](F)(F)F` (mixture of isomers) [3b, [Ru2Cp2(CO)3{μ–η^1:η^2-CH=C=(estradiolylidene)}]BF4], the IC50 is 3.4 ± 0.6 µM in assay [1] (setting [9]); 4 ± 0.7 µM in assay [1] (setting [10]); 3 ± 0.3 µM in assay [1] (setting [11]); 2.8 ± 0.2 µM in assay [1] (setting [12]); 4.6 ± 1.3 µM in assay [2]; 16.1 ± 1.3 µM in assay [3]. This molecule displayed an IC50 in assay [4] of 13.4 ± 1.8 µM. Moreover, the “mass variation of adduct with respect to BSA” value in assay [5] worked out at 483 Da. Besides, the “proapoptotic effect, Annexin V/PI (in words)” value in the assay on A2780 cells [6] is reported as “much less effective than that of cisplatin”. In addition, in the assay with A2780 cells [7], the “autophagy level (in words)” value was “only moderately”. Moreover, the “intracellular ROS levels (in words)” value in the assay on A2780 cells [8] is reported as “no appreciable effect”.
